One data set addresses Vasopressin V1a receptor (Rattus norvegicus, UniProt P30560). The data set can be described thus: Antagonist activity at vasopressin V1a receptor in phenoxybenzamine-treated Wistar rat uterus assessed as inhibition of vasopressin-induced arterial vasopressor activity treated 1 min prior to vasopressin challenge. Type of data set: functional, tissue-based. Conditions: for Kb: read-out: pA2 (converted).

The next data set addresses T1, Oxytocin receptor (Rattus norvegicus, UniProt P70536).
T1 sequence (P70536 whole entry): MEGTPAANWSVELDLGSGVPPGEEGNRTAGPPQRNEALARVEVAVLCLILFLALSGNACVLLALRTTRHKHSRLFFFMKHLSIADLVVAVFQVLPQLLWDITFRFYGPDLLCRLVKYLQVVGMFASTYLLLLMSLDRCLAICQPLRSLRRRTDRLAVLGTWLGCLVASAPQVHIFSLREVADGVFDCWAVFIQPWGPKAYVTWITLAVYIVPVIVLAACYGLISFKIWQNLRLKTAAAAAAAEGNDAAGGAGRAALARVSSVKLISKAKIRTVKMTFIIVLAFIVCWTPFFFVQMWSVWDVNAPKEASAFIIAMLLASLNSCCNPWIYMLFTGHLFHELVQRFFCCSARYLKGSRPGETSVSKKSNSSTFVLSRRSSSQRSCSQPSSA
Type of data set: functional, tissue-based, Wistar, Uterus.

Data set [1] has as its system Rattus norvegicus. The data set can be described thus: Antidiuretic activity in fasted and hydrated Wistar rat assessed as compound required to yield antidiuresis time of 200 mins required for urinary excretion of half the water load at 0.001 to 100 nmol/kg, sc administered immediately after water loading by modified Burn test. Format: functional, Urine.
The subject of data set [2] is Rattus norvegicus. In words: Antidiuretic activity in fasted and hydrated Wistar rat assessed as compound potency to yield antidiuresis time of 60 mins required for urinary excretion of half the water load at 0.001 to 100 nmol/kg, sc administered immediately after water loading by modified Burn test relative to 1-deamino-8-D-arginine vasopressin. Type of data set: functional, Urine.

Data set [3] deals with Rattus norvegicus. The data set can be described thus: Antidiuretic activity in fasted and hydrated Wistar rat assessed as compound potency to yield antidiuresis time of 200 mins required for urinary excretion of half the water load at 0.001 to 100 nmol/kg, sc administered immediately after water loading by modified Burn test relative to 1-deamino-8-D-arginine vasopressin. Type of data set: functional, Urine.

Data set [4] has as its system Rattus norvegicus. The data set can be described thus: Antidiuretic activity in fasted and hydrated Wistar rat assessed as compound required to yield antidiuresis time of 60 mins required for urinary excretion of half the water load at 0.001 to 100 nmol/kg, sc administered immediately after water loading by modified Burn test. Format: functional, Urine.
Data set [5] concerns Rattus norvegicus. In words: Activity at vasopressin V1a receptor in phenoxybenzamine-treated Wistar rat uterus assessed as induction of arterial vasopressor activity up to 0.15 mg/kg. Type of data set: functional, organism-based. Also noted: dose 0.15 mg/kg.
The target in data set [6] is Vasopressin V1a receptor (Rattus norvegicus) (UniProt P30560). In words: Agonist activity at vasopressin V1a receptor in phenoxybenzamine-treated Wistar rat uterus assessed as arterial vasopressor activity. Type of data set: functional, tissue-based.
Data set [7] can be described thus: Volume of distribution in Wistar rat. Type of data set: ADME, organism-based. Conditions: in vivo.

The record followed here is ChEMBL document CHEMBL1152921 (Eur J Med Chem, 2009).

Activity calls are given as the source filed them. The calls are words filed in the database; no cut-off is given here. Where a SMILES comes first, the peptide text is derived from it. Bridges are numbered along the chain shown (N, C = ends). [ ]: non-standard residue; d: D form. Aic = NC1(C(=O)O)Cc2ccccc2C1

Sequence of Vasopressin V1a receptor (P30560 whole entry): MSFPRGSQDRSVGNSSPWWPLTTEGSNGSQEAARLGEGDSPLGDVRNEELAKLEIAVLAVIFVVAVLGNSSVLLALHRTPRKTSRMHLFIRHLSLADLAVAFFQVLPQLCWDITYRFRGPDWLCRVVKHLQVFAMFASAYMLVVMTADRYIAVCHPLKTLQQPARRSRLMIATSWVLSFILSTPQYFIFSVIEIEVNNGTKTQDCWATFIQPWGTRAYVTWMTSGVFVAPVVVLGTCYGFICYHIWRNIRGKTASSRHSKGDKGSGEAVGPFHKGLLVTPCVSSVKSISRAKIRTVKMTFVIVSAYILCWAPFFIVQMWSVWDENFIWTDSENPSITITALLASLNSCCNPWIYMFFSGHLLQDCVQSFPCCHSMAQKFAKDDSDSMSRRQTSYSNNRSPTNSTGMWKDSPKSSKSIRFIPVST
Sequence of Vasopressin V1a receptor (Rattus norvegicus) (P30560 whole entry, looked up): as the sequence (P30560 whole entry) above

In the case of `N=C(N)NCCC[C@H](NC(=O)[C@@H]1CCCN1C(=O)[C@@H]1CSSC2(CCCCC2)CC(=O)N[C@H](C(c2ccccc2)c2ccccc2)C(=O)N[C@@H](Cc2ccccc2)C(=O)N[C@@H](CCC(N)=O)C(=O)N[C@@H](CC(N)=O)C(=O)N1)C(=O)NCC(N)=O`, the pA2 (commonly the negative logarithm of the molar antagonist concentration that doubles the agonist concentration needed for the same response) was determined as 7.4 on Vasopressin V1a receptor and 6.83 on Oxytocin receptor.
In the case of `CC(C)[C@@H]1NC(=O)[C@H](Cc2ccccc2)NC(=O)[C@H](C(c2ccccc2)c2ccccc2)NC(=O)CCSSC[C@@H](C(=O)N2CCC[C@H]2C(=O)N[C@H](CCCNC(=N)N)C(=O)NCC(N)=O)NC(=O)[C@H](CC(N)=O)NC1=O` (stereo in doubt; form 1) [listing 1 of 2 here], the Activity in the data set on Rattus norvegicus [1] is 4500 IU/mg; in the data set on Rattus norvegicus [2] it was 2.2%; in the data set on Rattus norvegicus [3], 1.8%; with Rattus norvegicus [4], 100 IU/mg.
For the compound `N=C(N)NCCC[C@H](NC(=O)[C@@H]1CCCN1C(=O)[C@@H]1CSSCCC(=O)NC(C(c2ccccc2)c2ccccc2)C(=O)N[C@@H](Cc2ccccc2)C(=O)N[C@@H](CCC(N)=O)C(=O)N[C@@H](CC(N)=O)C(=O)N1)C(=O)NCC(N)=O` (single isomer, unassigned), the Activity with Rattus norvegicus [1] is 45000 IU/mg; with Rattus norvegicus [2], 10%; in the data set on Rattus norvegicus [3] it was 18%; in the data set on Rattus norvegicus [4], 450 IU/mg.
Consider `N=C(N)NCCC[C@@H](NC(=O)[C@@H]1CCCN1C(=O)[C@@H]1CSSCCC(=O)N[C@H](C(c2ccccc2)c2ccccc2)C(=O)N[C@@H](Cc2ccccc2)C(=O)N[C@@H](CCC(N)=O)C(=O)N[C@@H](CC(N)=O)C(=O)N1)C(=O)NCC(N)=O`, for which the Activity in the data set on Rattus norvegicus [1] worked out at 225000 IU/mg; in the data set on Rattus norvegicus [2] it was 200%; in the data set on Rattus norvegicus [3] it was 100%; in the data set with Rattus norvegicus [4], 9000 IU/mg.
Turning to `N=C(N)NCCC[C@H](NC(=O)[C@@H]1CCCN1C(=O)[C@@H]1CSSCCC(=O)N[C@H](C(c2ccccc2)c2ccccc2)C(=O)N[C@@H](Cc2ccccc2)C(=O)N[C@@H](CCC(N)=O)C(=O)N[C@@H](CC(N)=O)C(=O)N1)C(=O)NCC(N)=O`, the Activity in the data set with Rattus norvegicus [1] is listed as 200000 IU/mg; in the data set with Rattus norvegicus [2], 100%; in the data set on Rattus norvegicus [3] it was 80%; in the data set with Rattus norvegicus [4], 4500 IU/mg. In the data set with Rattus norvegicus [5], the outcome was inactive.
For `CC(C)[C@@H]1NC(=O)[C@H](Cc2ccccc2)NC(=O)[C@@H](C(c2ccccc2)c2ccccc2)NC(=O)CCSSC[C@@H](C(=O)N2CCC[C@H]2C(=O)N[C@H](CCCNC(=N)N)C(=O)NCC(N)=O)NC(=O)[C@H](CC(N)=O)NC1=O`, the Activity was 450000 IU/mg in the data set with Rattus norvegicus [1], 200% in the data set with Rattus norvegicus [2], 150% in the data set with Rattus norvegicus [3] and 9000 IU/mg with Rattus norvegicus [4]. Further, the Kb on Vasopressin V1a receptor was above 1580 nM.
Take `CC(C)[C@@H]1NC(=O)[C@H](Cc2ccccc2)NC(=O)[C@@H](C(c2ccccc2)c2ccccc2)NC(=O)CCSSC[C@@H](C(=O)N2CCC[C@H]2C(=O)N[C@@H](CCCNC(=N)N)C(=O)NCC(N)=O)NC(=O)[C@H](CC(N)=O)NC1=O` (stereo in doubt): the Kb on Vasopressin V1a receptor was above 1580 nM.
`CC(C)[C@@H]1NC(=O)[C@H](Cc2ccccc2)NC(=O)[C@H](C(c2ccccc2)c2ccccc2)NC(=O)CCSSC[C@@H](C(=O)N2CCC[C@H]2C(=O)N[C@@H](CCCNC(=N)N)C(=O)NCC(N)=O)NC(=O)[C@H](CC(N)=O)NC1=O`: the Activity in the data set with Rattus norvegicus [1] came out at 20000 IU/mg; in the data set on Rattus norvegicus [2] it was 2.2%; with Rattus norvegicus [3], 8%; in the data set on Rattus norvegicus [4], 100 IU/mg. In addition, the outcome with Rattus norvegicus [5] was inactive.
For the compound `CC(C)[C@@H]1NC(=O)[C@H](Cc2ccccc2)NC(=O)[C@H](C(c2ccccc2)c2ccccc2)NC(=O)CCSSC[C@@H](C(=O)N2CCC[C@H]2C(=O)N[C@H](CCCNC(=N)N)C(=O)NCC(N)=O)NC(=O)[C@H](CC(N)=O)NC1=O` (stereo in doubt; form 1) [listing 2 of 2 here], the result with Rattus norvegicus [5] was inactive.
In the case of `N=C(N)NCCCC(NC(=O)[C@@H]1CCCN1C(=O)[C@@H]1CSSCCC(=O)N[C@@H](Cc2ccc(O)cc2)C(=O)N[C@@H](Cc2ccccc2)C(=O)N[C@@H](CCC(N)=O)C(=O)N[C@@H](CC(N)=O)C(=O)N1)C(=O)NCC(N)=O` (single isomer, unassigned) [DESMOPRESSIN], the figures for the Activity with Rattus norvegicus [2], in the data set with Rattus norvegicus [3] and in the data set with Rattus norvegicus [4] were 73.9%, 97.3% and 1300 IU/mg, respectively.
Regarding `N=C(N)NCCC[C@@H](NC(=O)[C@@H]1CCCN1C(=O)[C@@H]1CSSCCC(=O)N[C@@H](C(c2ccccc2)c2ccccc2)C(=O)N[C@@H](Cc2ccccc2)C(=O)N[C@@H](CCC(N)=O)C(=O)N[C@@H](CC(N)=O)C(=O)N1)C(=O)NCC(N)=O`, the Activity was 20000 IU/mg with Rattus norvegicus [1], 0.7% with Rattus norvegicus [2], 8% in the data set on Rattus norvegicus [3] and 30 IU/mg in the data set on Rattus norvegicus [4]. Besides, in the data set on Rattus norvegicus [5], the result was inactive.
For `N=C(N)NCCC[C@H](NC(=O)[C@@H]1CCCN1C(=O)[C@@H]1CSSC[C@H](N)C(=O)NC2(Cc3ccccc3C2)C(=O)N[C@@H](Cc2ccccc2)C(=O)N[C@@H](CCC(N)=O)C(=O)N[C@@H](CC(N)=O)C(=O)N1)C(=O)NCC(N)=O` (H-C[Aic]FQNCPRG-NH2; disulfide 1-6), the Activity was 45000 IU/mg in the data set with Rattus norvegicus [1]; 10% in the data set on Rattus norvegicus [2]; 18% in the data set with Rattus norvegicus [3]; 450 IU/mg in the data set with Rattus norvegicus [4]; 9.4 IU/mg in data set [6].
In the case of `N=C(N)NCCC[C@@H](NC(=O)[C@@H]1CCCN1C(=O)[C@@H]1CSSCCC(=O)N[C@@H](Cc2ccc(O)cc2)C(=O)N[C@@H](Cc2ccccc2)C(=O)N[C@@H](CCC(N)=O)C(=O)N[C@@H](CC(N)=O)C(=O)N1)C(=O)NCC(N)=O` [DESMOPRESSIN], the Activity is 100% in the data set on Rattus norvegicus [2], 100% with Rattus norvegicus [3] and 800 IU/mg in the data set on Rattus norvegicus [4].
As to `CC(C)[C@@H]1NC(=O)[C@H](Cc2ccccc2)NC(=O)[C@H](C(c2ccccc2)c2ccccc2)NC(=O)CCSSC[C@@H](C(=O)N2CCC[C@H]2C(=O)N[C@H](CCCNC(=N)N)C(=O)NCC(N)=O)NC(=O)[C@H](CC(N)=O)NC1=O` (stereo in doubt; form 2), the Activity in the data set with Rattus norvegicus [1] was 450000 IU/mg; in the data set with Rattus norvegicus [2], 100%; with Rattus norvegicus [3] it was 150%; in the data set with Rattus norvegicus [4], 4500 IU/mg.
In the case of `N=C(N)NCCC[C@@H](NC(=O)[C@@H]1CCCN1C(=O)[C@@H]1CSSC[C@H](N)C(=O)N[C@@H](C(c2ccccc2)c2ccccc2)C(=O)N[C@@H](Cc2ccccc2)C(=O)N[C@@H](CCC(N)=O)C(=O)N[C@@H](CC(N)=O)C(=O)N1)C(=O)NCC(N)=O`, the Activity was determined as 3000 IU/mg in the data set on Rattus norvegicus [1], 0.7% in the data set with Rattus norvegicus [2], 1.2% with Rattus norvegicus [3] and 30 IU/mg in the data set with Rattus norvegicus [4]. Besides, in the data set with Rattus norvegicus [5], the outcome was inactive.
As to `NC(=O)CC[C@@H]1NC(=O)[C@H](Cc2ccccc2)NC(=O)[C@H](Cc2ccc(O)cc2)NC(=O)[C@@H](N)CSSC[C@@H](C(=O)N2CCC[C@H]2C(=O)N[C@H](CCCN=C(N)N)C(=O)NCC(N)=O)NC(=O)[C@H](CC(N)=O)NC1=O`, the Activity in the data set on Rattus norvegicus [2] is 23.2%; in the data set on Rattus norvegicus [3], 1.7%; in the data set with Rattus norvegicus [4], 111 IU/mg.
For the compound `N=C(N)NCCC[C@H](NC(=O)[C@@H]1CCCN1C(=O)[C@@H]1CSSC[C@H](N)C(=O)N[C@@H](Cc2ccc(O)cc2)C(=O)N[C@@H](Cc2ccccc2)C(=O)N[C@@H](CCC(N)=O)C(=O)N[C@@H](CC(N)=O)C(=O)N1)C(=O)NCC(N)=O` [VASOPRESSIN], the Activity is recorded as 450 IU/mg in the data set on Rattus norvegicus [1], 10% in the data set with Rattus norvegicus [2], 0.125% in the data set with Rattus norvegicus [3] and 450 IU/mg in the data set with Rattus norvegicus [4]. Moreover, the Vd – broadly, a proportionality between amount in the body and measured concentration, not a real space – in [7] came out at 0.067 L/kg.
For the compound `CC(C)[C@@H]1NC(=O)[C@H](Cc2ccccc2)NC(=O)[C@H](Cc2ccc(O)cc2)NC(=O)[C@@H](N)CSSC[C@@H](C(=O)N2CCC[C@H]2C(=O)N[C@@H](CCCNC(=N)N)C(=O)NCC(N)=O)NC(=O)[C@H](CC(N)=O)NC1=O` (H-CYFVNCPRG-NH2; disulfide 1-6), the values for the Activity (with Rattus norvegicus [4]; in data set [6]) were 758 IU/mg and 32 IU/mg, respectively.
As for `N=C(N)NCCC[C@H](NC(=O)[C@@H]1CCCN1C(=O)[C@@H]1CSSC2(CCCCC2)CC(=O)N[C@@H](C(c2ccccc2)c2ccccc2)C(=O)N[C@@H](Cc2ccccc2)C(=O)N[C@@H](CCC(N)=O)C(=O)N[C@@H](CC(N)=O)C(=O)N1)C(=O)NCC(N)=O`, the Activity with Rattus norvegicus [1] is below 4.5 IU/mg; with Rattus norvegicus [2], below 0.1%; in the data set on Rattus norvegicus [3], below 0.1%; with Rattus norvegicus [4], below 4.5 IU/mg. Moreover, the result with Rattus norvegicus [5] was inactive.
